Results on 17 molecules are retold here after patent publication US8791131B2, “Imidazo[1,5]naphthyridine compounds, their pharmaceutical use and compositions” (Pfizer Inc., priority 2008, dated 2014).

The structures appear in SMILES notation.

The subject of test [1] is PI3-K (phosphorylation of AKT at serine 473) in BT20 cells. Description: PI3-Kα cellular assay (phospho-AKT Ser473 ELISA in BT20 cells).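 Note: lysates read by ELISA with TMB colour at 450 nm, cells given 0.5% DMSO vehicle serve as positive control and cell-free wells as negative control, duplicate wells per concentration.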 Particulars: Homo sapiens, BT-20, 1 h, read-out: S473 pAKT 10% FBS IC50 (μM).
The next test concerns the target PI3-Kα (Mus musculus (Mouse), UniProt P42337). Description: PI3-Kα biochemical assay (in vitro kinase assay, fluorescence polarization).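 Note: Insect-cell-expressed mouse p110/p85 complex converting PI(4,5)P2, product PI(3,4,5)P3 detected by displacing TAMRA-tagged PI(3,4,5)P3 from Grip1 PH domain, lower polarization means more product, room temperature.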 The conditions noted are these: Ki calculated from IC50, [ATP]=30 uM, Km=25 uM.
A further test addresses mTOR (Homo sapiens (Human), UniProt P42345).

Chain of PI3-Kα (P42337 whole entry, the tested form may be a part): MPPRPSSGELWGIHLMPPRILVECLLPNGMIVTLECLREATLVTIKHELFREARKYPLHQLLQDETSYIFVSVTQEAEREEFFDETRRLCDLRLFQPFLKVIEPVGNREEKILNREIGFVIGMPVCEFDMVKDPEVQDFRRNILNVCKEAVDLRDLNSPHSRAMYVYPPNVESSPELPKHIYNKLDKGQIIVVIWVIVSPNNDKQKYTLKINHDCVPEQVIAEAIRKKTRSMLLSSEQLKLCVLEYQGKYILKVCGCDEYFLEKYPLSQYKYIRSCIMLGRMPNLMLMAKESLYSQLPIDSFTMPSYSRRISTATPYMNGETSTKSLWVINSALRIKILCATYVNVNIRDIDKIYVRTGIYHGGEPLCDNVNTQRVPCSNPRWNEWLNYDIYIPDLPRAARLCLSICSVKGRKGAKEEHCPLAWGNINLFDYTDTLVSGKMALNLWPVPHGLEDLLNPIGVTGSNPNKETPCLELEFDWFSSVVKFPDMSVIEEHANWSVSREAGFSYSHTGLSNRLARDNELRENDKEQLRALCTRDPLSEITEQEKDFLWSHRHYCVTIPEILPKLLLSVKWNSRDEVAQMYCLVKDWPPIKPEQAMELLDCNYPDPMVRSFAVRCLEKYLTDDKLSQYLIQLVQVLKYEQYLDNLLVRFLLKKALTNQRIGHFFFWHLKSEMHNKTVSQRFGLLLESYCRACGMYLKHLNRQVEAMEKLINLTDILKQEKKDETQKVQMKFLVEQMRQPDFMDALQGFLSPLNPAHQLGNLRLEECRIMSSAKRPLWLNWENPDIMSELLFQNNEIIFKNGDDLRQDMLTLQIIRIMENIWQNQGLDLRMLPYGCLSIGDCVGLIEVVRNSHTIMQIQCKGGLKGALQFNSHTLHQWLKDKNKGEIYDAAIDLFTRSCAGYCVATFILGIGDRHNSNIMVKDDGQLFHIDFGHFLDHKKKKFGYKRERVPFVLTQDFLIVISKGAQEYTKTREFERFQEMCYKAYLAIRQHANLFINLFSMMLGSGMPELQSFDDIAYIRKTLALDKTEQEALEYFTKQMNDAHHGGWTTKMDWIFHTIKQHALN
Chain of PI3-Kα (P26450 whole entry partner, the tested form may be a part): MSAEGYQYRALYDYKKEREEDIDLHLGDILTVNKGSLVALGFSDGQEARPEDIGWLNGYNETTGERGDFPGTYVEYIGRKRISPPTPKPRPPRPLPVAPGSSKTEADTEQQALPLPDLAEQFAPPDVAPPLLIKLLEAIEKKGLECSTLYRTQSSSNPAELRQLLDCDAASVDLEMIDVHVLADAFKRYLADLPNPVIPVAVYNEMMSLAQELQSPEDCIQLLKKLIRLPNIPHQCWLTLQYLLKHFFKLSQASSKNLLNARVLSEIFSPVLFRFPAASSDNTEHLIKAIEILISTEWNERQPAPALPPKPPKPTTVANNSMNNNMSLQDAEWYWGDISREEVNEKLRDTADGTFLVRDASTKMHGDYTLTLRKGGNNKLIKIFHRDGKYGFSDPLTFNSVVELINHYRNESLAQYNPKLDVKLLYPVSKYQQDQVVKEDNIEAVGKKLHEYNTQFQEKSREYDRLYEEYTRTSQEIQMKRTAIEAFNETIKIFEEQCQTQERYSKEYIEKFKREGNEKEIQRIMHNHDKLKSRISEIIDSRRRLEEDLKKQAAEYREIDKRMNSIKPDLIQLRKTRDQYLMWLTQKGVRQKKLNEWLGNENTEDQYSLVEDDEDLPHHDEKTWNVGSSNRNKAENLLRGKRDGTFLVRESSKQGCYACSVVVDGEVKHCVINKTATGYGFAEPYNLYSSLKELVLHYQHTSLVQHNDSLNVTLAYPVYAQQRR
Chain of mTOR (P42345 2156-2469): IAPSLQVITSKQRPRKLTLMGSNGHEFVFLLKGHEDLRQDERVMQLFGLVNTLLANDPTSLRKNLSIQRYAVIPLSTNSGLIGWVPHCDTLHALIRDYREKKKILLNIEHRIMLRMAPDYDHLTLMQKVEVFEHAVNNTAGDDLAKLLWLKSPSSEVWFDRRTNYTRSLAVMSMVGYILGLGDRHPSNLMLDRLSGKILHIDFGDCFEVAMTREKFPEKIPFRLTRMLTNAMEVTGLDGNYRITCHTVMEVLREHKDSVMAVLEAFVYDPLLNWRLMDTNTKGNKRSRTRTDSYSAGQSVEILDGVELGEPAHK

For the molecule `COc1ccc(-c2ccc3ncc4c(c3n2)n(C2CCN(CC(N)=O)CC2)c(=O)n4C)cn1` [Compound 139, 2-{4-[8-(6-methoxypyridin-3-yl)-3-methyl-2-oxo-2,3-dihydro-1H-imidazo[4,5-c][1,5]naphthyridin-1-yl]piperidin-1-yl}acetamide], the IC50 in test [1] is 0.00714 µM. Also, the “PI3Ka Ki” value on PI3-Kα was 0.339 nM. Besides, the affinity at mTOR corresponds to a Ki of 3.32 nM.
The like results for `CC(=O)N1CCC(n2c(=O)n(C)c3cnc4ccc(-c5ccc(S(C)(=O)=O)cc5)nc4c32)CC1` [Compound 246, 1-(1-acetylpiperidin-4-yl)-3-methyl-8-[4-(methylsulfonyl)phenyl]-1,3-dihydro-2H-imidazo[4,5-c][1,5]naphthyridin-2-one] were, in that order, 2.58 µM, 24.2 nM and 35.3 nM.
Consider `CNC(=O)N1CCC(n2c(=O)n(C)c3cnc4ccc(-c5ccc(OC)nc5)nc4c32)CC1` [Compound 142, 4-[8-(6-methoxypyridin-3-yl)-3-methyl-2-oxo-2,3-dihydro-1H-imidazo[4,5-c][1,5]naphthyridin-1-yl]-N-methylpiperidine-1-carboxamide], for which, in test [1], the IC50 is 0.00919 µM. Further, at PI3-Kα, the “PI3Ka Ki” value was 1.15 nM. At mTOR, this molecule came in with a Ki of 1.6 nM.
The like results for `COc1ccc(-c2ccc3ncc4c(c3n2)n(C2CCN(C(C)=O)CC2)c(=O)n4C)cc1` [Compound 274, 1-(1-acetylpiperidin-4-yl)-8-(4-methoxyphenyl)-3-methyl-1,3-dihydro-2H-imidazo[4,5-c][1,5]naphthyridin-2-one] were, in that order, 0.0113 µM, 7.71 nM and 14.6 nM.
The like results for `Cn1c(=O)n([C@H]2CC[C@H](O)CC2)c2c3nc(-c4cn[nH]c4)ccc3ncc21` [Compound 168, 1-(trans-4-hydroxycyclohexyl)-3-methyl-8-(1H-pyrazol-4-yl)-1,3-dihydro-2H-imidazo[4,5-c][1,5]naphthyridin-2-one] were, in that order, 0.0197 µM, 4.17 nM and 0.204 nM.
On to `Cc1ccc(-c2ccc3ncc4c(c3n2)n([C@H]2CC[C@H](OCCO)CC2)c(=O)n4C)cn1` [Compound 152, 1-[trans-4-(2-hydroxyethoxy)cyclohexyl]-3-methyl-8-(6-methylpyridin-3-yl)-1,3-dihydro-2H-imidazo[4,5-c][1,5]naphthyridin-2-one], for which, in test [1], the IC50 is 0.00863 µM. For the same molecule, the “PI3Ka Ki” value at PI3-Kα was 1.68 nM. The Ki at mTOR amounted to 11.4 nM.
For the molecule `COc1ccc(-c2ccc3ncc4[nH]c(=O)n([C@H]5CC[C@H](OCCO)CC5)c4c3n2)cn1` [Compound 131, 1-[trans-4-(2-hydroxyethoxy)cyclohexyl]-8-(6-methoxypyridin-3-yl)-1,3-dihydro-2H-imidazo[4,5-c][1,5]naphthyridin-2-one], in test [1], the IC50 came out at 0.0384 µM. The “PI3Ka Ki” value at PI3-Kα was 0.644 nM. At mTOR, this molecule showed a Ki of 2.14 nM.
The matching figures for `Cn1c(=O)n(C2CCN(C(=O)C(C)(C)N)CC2)c2c3nc(-c4cnc5ccccc5c4)ccc3ncc21` [Compound 145, 3-methyl-1-[1-(2-methylalanyl)piperidin-4-yl]-8-quinolin-3-yl-1,3-dihydro-2H-imidazo[4,5-c][1,5]naphthyridin-2-one]: 0.0117 µM, 3.92 nM and 13.3 nM.
`Cn1c(=O)n(C2CCNCC2)c2c3nc(-c4cnn(CCO)c4)ccc3ncc21` [Compound 226, 8-[1-(2-hydroxyethyl)-1H-pyrazol-4-yl]-3-methyl-1-piperidin-4-yl-1,3-dihydro-2H-imidazo[4,5-c][1,5]naphthyridin-2-one]: the IC50 in test [1] came out at 3.21 µM. Moreover, the “PI3Ka Ki” value at PI3-Kα is 52.1 nM. The same molecule yielded a Ki on mTOR of 105 nM.
The matching figures for `Cn1c(=O)n(C2CCN(C(=O)C(C)(C)O)CC2)c2c3nc(-c4cnc5[nH]ncc5c4)ccc3ncc21` [Compound 261, 1-[1-(2-hydroxy-2-methylpropanoyl)piperidin-4-yl]-3-methyl-8-(1H-pyrazolo[3,4-b]pyridin-5-yl)-1,3-dihydro-2H-imidazo[4,5-c][1,5]naphthyridin-2-one]: 0.00991 µM, 0.114 nM and 0.658 nM.
The like results for `CCNC(=O)Nc1ccc(-c2ccc3ncc4c(c3n2)n(C2CCN(C(=O)OC(C)(C)C)CC2)c(=O)n4C)cc1` [Compound 265, tert-butyl 4-(8-{4-[(ethylcarbamoyl)amino]phenyl}-3-methyl-2-oxo-2,3-dihydro-1H-imidazo[4,5-c][1,5]naphthyridin-1-yl)piperidine-1-carboxylate] were, in that order, 0.0399 µM, 5.02 nM and 14.4 nM.
The matching figures for `COc1ccc(-c2ccc3ncc4c(c3n2)n([C@H](C)CO)c(=O)n4C)cn1` [Compound 233, 1-[(1R)-2-hydroxy-1-methylethyl]-8-(6-methoxypyridin-3-yl)-3-methyl-1,3-dihydro-2H-imidazo[4,5-c][1,5]naphthyridin-2-one]: 0.237 µM, 8.94 nM and 23.8 nM.
For `COc1cccc(-c2ccc3ncc4c(c3n2)n(C2CCN(C(C)=O)CC2)c(=O)n4C)c1` [Compound 277, 1-(1-acetylpiperidin-4-yl)-8-(3-methoxyphenyl)-3-methyl-1,3-dihydro-2H-imidazo[4,5-c][1,5]naphthyridin-2-one], the IC50 in test [1] worked out at 0.0577 µM. The “PI3Ka Ki” value at PI3-Kα was 3.04 nM. Further, the Ki at mTOR was 10.3 nM.
The like results for `CN(C)CC(=O)N1CCC(n2c(=O)n(C)c3cnc4ccc(-c5ccc(N(C)C)nc5)nc4c32)CC1` [Compound 144, 8-[6-(dimethylamino)pyridin-3-yl]-1-[1-(N,N-dimethylglycyl)piperidin-4-yl]-3-methyl-1,3-dihydro-2H-imidazo[4,5-c][1,5]naphthyridin-2-one] were, in that order, 0.0153 µM, 2.1 nM and 7.99 nM.
Regarding `CN1CCC(n2c(=O)n(C)c3cnc4ccc(-c5ccc(N(C)C)nc5)nc4c32)CC1` [Compound 207, 8-[6-(dimethylamino)pyridin-3-yl]-3-methyl-1-(1-methylpiperidin-4-yl)-1,3-dihydro-2H-imidazo[4,5-c][1,5]naphthyridin-2-one], the IC50 in test [1] came out at 0.0194 µM. Also, the Ki on mTOR was 9.62 nM.
Turning to `COc1ccc(-c2ccc3ncc4c(c3n2)n(C2CCN(C(=O)CO)CC2)c(=O)n4C)cc1` [Compound 273, 1-(1-glycoloylpiperidin-4-yl)-8-(4-methoxyphenyl)-3-methyl-1,3-dihydro-2H-imidazo[4,5-c][1,5]naphthyridin-2-one], the 50% inhibitory concentration (IC50) in test [1] was found to be 0.0174 µM. At mTOR, the Ki stood at 3.42 nM.
`CNC(=O)N1CCC(n2c(=O)n(C)c3cnc4ccc(-c5cnn(C)c5)nc4c32)CC1` [Compound 217, N-methyl-4-[3-methyl-8-(1-methyl-1H-pyrazol-4-yl)-2-oxo-2,3-dihydro-1H-imidazo[4,5-c][1,5]naphthyridin-1-yl]piperidine-1-carboxamide]: the IC50 in test [1] came out at 0.0793 µM. At mTOR, this molecule showed a Ki of 18.7 nM.

Broadly, the IC50 is the concentration needed to halve the response being measured. One may read the Ki as a measure of affinity in units of concentration, obtained from inhibition or displacement. High values mean a looser hold on the target, low ones a stronger hold on the target.
